From patent US12077503B2, “Substituted cyclic amides and their use as herbicides” (FMC CORPORATION, priority 2015, dated 2024)
Like-named read-outs stand apart in the source and are kept apart here.

What was measured:
Format in all cases: in vivo
[1] = tested on: ryegrass, Italian (Italian ryegrass, Lolium multiflorum); assay: Test A postemergence; settings: Lolium multiflorum, post-emergence, 240 h, postemergence; for pest or weed control at 125 g/ha: 125 g ai/ha
In short: (§1)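 Seeds sprayed preemergence with a directed soil spray, or plants at 2 to 10 cm height and one- to two-leaf stage sprayed postemergence, with test chemicals in a non-phytotoxic solvent mixture containing surfactant, in loam soil–sand blend. Injury rated visually against untreated controls after about 10 d in greenhouse, 0 (no effect) to 100 (complete control).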

[2] = tested on: ragweed (common ragweed, Ambrosia elatior); assay: Test A postemergence; settings: Ambrosia artemisiifolia, post-emergence, 240 h, postemergence; for pest or weed control at 125 g/ha: 125 g ai/ha
In short: as §1

corn (Zea mays) = assay: Test A postemergence; settings: Zea mays, post-emergence, 240 h, postemergence; for plant injury at 125 g/ha: 125 g ai/ha
In short: as §1

[3] = tested on: pigweed (Amaranthus retroflexus); assay: Test A postemergence; settings: Amaranthus retroflexus, post-emergence, 240 h, postemergence; for pest or weed control at 125 g/ha: 125 g ai/ha
In short: as §1

[4] = tested on: blackgrass (Alopecurus myosuroides); assay: Test A postemergence; settings: Alopecurus myosuroides, post-emergence, 240 h, postemergence; for pest or weed control at 125 g/ha: 125 g ai/ha
In short: as §1

[5] = tested on: sedge, umbrella (small-flower umbrella sedge, Cyperus difformis); assay: Test B flooded paddy test; settings: Cyperus difformis, Flood, 250 g ai/ha, read-out: Sedge, Umbrella plant response rating
In short: (§2)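 Evaluation by eye, against controls, occurred 13–15 d post-treatment in a greenhouse, using a 0 (no effect) to 100 (complete control) scale. Application was into the paddy water, 3 cm deep over the soil, on 2-leaf plants.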

[6] = tested on: ducksalad (Heteranthera limosa); assay: Test B flooded paddy test; settings: Heteranthera limosa, Flood, 250 g ai/ha, read-out: Ducksalad plant response rating
In short: as §2

rice (Oryra sativa) = assay: Test B flooded paddy test; settings: Oryza sativa, Flood, 250 g ai/ha, read-out: Rice plant response rating
In short: as §2

[7] = tested on: barnyardgrass (Echinochloa crus-galli); assay: Test B flooded paddy test; settings: Echinochloa crus-galli, Flood, 250 g ai/ha, read-out: Barnyardgrass plant response rating
In short: as §2

[8] = tested on: ryegrass, Italian (Italian ryegrass, Lolium multiflorum); assay: Test A preemergence; settings: Lolium multiflorum, pre-emergence, 240 h; for pest or weed control at 125 g/ha: 125 g ai/ha, 0 to 100 scale where 0 is no effect and 100 is complete control; for pest or weed control at 500 g/ha: 500 g ai/ha
In short: as §1

[9] = tested on: ragweed (common ragweed, Ambrosia elatior); assay: Test A preemergence; settings: Ambrosia artemisiifolia, pre-emergence, 240 h; for pest or weed control at 125 g/ha: 125 g ai/ha, 0 to 100 scale where 0 is no effect and 100 is complete control; for pest or weed control at 500 g/ha: 500 g ai/ha
In short: as §1

Kochia (Kochia scoparia) = assay: Test A preemergence; settings: Bassia scoparia, pre-emergence, 240 h; for pest or weed control at 125 g/ha: 125 g ai/ha, 0 to 100 scale where 0 is no effect and 100 is complete control; for pest or weed control at 500 g/ha: 500 g ai/ha
In short: as §1

[10] = tested on: pigweed (Amaranthus retroflexus); assay: Test A preemergence; settings: Amaranthus retroflexus, pre-emergence, 240 h; for pest or weed control at 125 g/ha: 125 g ai/ha, 0 to 100 scale where 0 is no effect and 100 is complete control; for pest or weed control at 500 g/ha: 500 g ai/ha
[11] = tested on: giant foxtail (Setaria faberii); assay: Test A preemergence; settings: Setaria faberi, pre-emergence, 240 h; for pest or weed control at 125 g/ha: 125 g ai/ha; for pest or weed control at 500 g/ha: 500 g ai/ha
In short: as §1

[12] = tested on: barnyardgrass (Echinochloa crus-galli); assay: Test A preemergence; settings: Echinochloa crus-galli, pre-emergence, 240 h; for pest or weed control at 125 g/ha: 125 g ai/ha; for pest or weed control at 500 g/ha: 500 g ai/ha
In short: as §1

[13] = scale of 0 to 100 where 0 is no effect and 100 is complete control
[14] = 0 to 100 scale where 0 is no effect and 100 is complete control

Cc1c(F)ccc([C@H]2CN(C)C(=O)[C@@H]2C(=O)Nc2ccccc2S(C)(=O)=O)c1F [Compound 842]
pest or weed control at 125 g/ha ([1]; visual injury rating after approximately 10 d, read-out: Ryegrass, Italian plant response rating (0 to 100 scale, 0 no effect, 100 complete control)): 20%
pest or weed control at 125 g/ha ([2]; visual injury rating after approximately 10 d, read-out: Ragweed plant response rating (0 to 100 scale, 0 no effect, 100 complete control)): 30%
plant injury at 125 g/ha (corn (Zea mays); visual injury rating after approximately 10 d, read-out: Corn plant response rating (0 to 100 scale, 0 no effect, 100 complete control)): 20%
pest or weed control at 125 g/ha ([3]; visual injury rating after approximately 10 d, read-out: Pigweed plant response rating (0 to 100 scale, 0 no effect, 100 complete control)): 30%
pest or weed control at 125 g/ha ([4]; visual injury rating after approximately 10 d, read-out: Blackgrass plant response rating (0 to 100 scale, 0 no effect, 100 complete control)): 30%
pest or weed control at 250 g/ha [5, 13]: 0%
pest or weed control at 250 g/ha [6, 13]: 100%
pest or weed control at 250 g/ha (rice (Oryra sativa); [13]): 0%
pest or weed control at 250 g/ha [7, 13]: 65%
pest or weed control at 125 g/ha ([8]; preemergence, read-out: Ryegrass, Italian plant response rating): 30%
pest or weed control at 500 g/ha ([8]; Preemergence, visual injury vs untreated controls after approximately 10 d, read-out: Ryegrass, Italian plant response rating (0 to 100 scale where 0 is no effect and 100 is complete control)): 60%
pest or weed control at 125 g/ha ([9]; preemergence, read-out: Ragweed plant response rating): 70%
pest or weed control at 500 g/ha ([9]; Preemergence, visual injury vs untreated controls after approximately 10 d, read-out: Ragweed plant response rating (0 to 100 scale where 0 is no effect and 100 is complete control)): 80%
pest or weed control at 125 g/ha (Kochia (Kochia scoparia); preemergence, read-out: Kochia plant response rating): 80%
pest or weed control at 500 g/ha (Kochia (Kochia scoparia); Preemergence, visual injury vs untreated controls after approximately 10 d, read-out: Kochia plant response rating (0 to 100 scale where 0 is no effect and 100 is complete control)): 80%
pest or weed control at 125 g/ha ([10]; preemergence, read-out: Pigweed plant response rating): 40%
pest or weed control at 500 g/ha ([10]; Preemergence, visual injury vs untreated controls after approximately 10 d, read-out: Pigweed plant response rating (0 to 100 scale where 0 is no effect and 100 is complete control)): 70%
pest or weed control at 125 g/ha ([11]; preemergence, 0 to 100 scale where 0 is no effect and 100 is complete control, read-out: Foxtail, Giant plant response rating): 90%
pest or weed control at 500 g/ha ([11]; Preemergence, visual injury vs untreated controls after approximately 10 d, read-out: Foxtail, Giant plant response rating (0 to 100 scale where 0 is no effect and 100 is complete control)): 100%
pest or weed control at 125 g/ha ([12]; preemergence, 0 to 100 scale where 0 is no effect and 100 is complete control, read-out: Barnyardgrass plant response rating): 90%
pest or weed control at 500 g/ha ([12]; Preemergence, visual injury vs untreated controls after approximately 10 d, read-out: Barnyardgrass plant response rating (0 to 100 scale where 0 is no effect and 100 is complete control)): 90%

CC(C)=CC1CNC(=O)C1C(=O)Nc1ccccc1S(C)(=O)=O (centres unmarked) [Compound 1057]
pest or weed control at 125 g/ha ([1]; visual injury on 0 to 100 scale (0 no effect, 100 complete control), approx. 10 d, read-out: Ryegrass, Italian plant response rating): 0%
pest or weed control at 500 g/ha ([1]; 500 g ai/ha, 0 to 100 scale, 0 is no effect, 100 is complete control, read-out: Ryegrass, Italian plant response rating): 0%
pest or weed control at 125 g/ha ([2]; visual injury on 0 to 100 scale (0 no effect, 100 complete control), approx. 10 d, read-out: Ragweed plant response rating): 0%
pest or weed control at 500 g/ha ([2]; 500 g ai/ha, 0 to 100 scale, 0 is no effect, 100 is complete control, read-out: Ragweed plant response rating): 0%
plant injury at 125 g/ha (corn (Zea mays); visual injury on 0 to 100 scale (0 no effect, 100 complete control), approx. 10 d, read-out: Corn plant response rating): 0%
plant injury at 500 g/ha (corn (Zea mays); 500 g ai/ha, 0 to 100 scale, 0 is no effect, 100 is complete control, read-out: Corn plant response rating): 0%
pest or weed control at 125 g/ha ([3]; visual injury on 0 to 100 scale (0 no effect, 100 complete control), approx. 10 d, read-out: Pigweed plant response rating): 0%
pest or weed control at 500 g/ha ([3]; 500 g ai/ha, 0 to 100 scale, 0 is no effect, 100 is complete control, read-out: Pigweed plant response rating): 0%
pest or weed control at 125 g/ha ([4]; visual injury on 0 to 100 scale (0 no effect, 100 complete control), approx. 10 d, read-out: Blackgrass plant response rating): 0%
pest or weed control at 500 g/ha ([4]; 500 g ai/ha, 0 to 100 scale, 0 is no effect, 100 is complete control, read-out: Blackgrass plant response rating): 0%
pest or weed control at 250 g/ha [5, 14]: 0%
pest or weed control at 250 g/ha [6, 14]: 85%
pest or weed control at 250 g/ha (rice (Oryra sativa); [14]): 0%
pest or weed control at 250 g/ha [7, 14]: 30%
pest or weed control at 125 g/ha ([8]; preemergence, approx. 10 d, read-out: Ryegrass, Italian plant response rating): 0%
pest or weed control at 500 g/ha ([8]; preemergence, visual injury rating about 10 d after treatment, 0 to 100 scale (0 no effect, 100 complete control), read-out: Ryegrass, Italian plant response rating): 0%
pest or weed control at 125 g/ha ([9]; preemergence, approx. 10 d, read-out: Ragweed plant response rating): 0%
pest or weed control at 500 g/ha ([9]; preemergence, visual injury rating about 10 d after treatment, 0 to 100 scale (0 no effect, 100 complete control), read-out: Ragweed plant response rating): 0%
pest or weed control at 125 g/ha (Kochia (Kochia scoparia); preemergence, approx. 10 d, read-out: Kochia plant response rating): 0%
pest or weed control at 500 g/ha (Kochia (Kochia scoparia); preemergence, visual injury rating about 10 d after treatment, 0 to 100 scale (0 no effect, 100 complete control), read-out: Kochia plant response rating): 0%
pest or weed control at 125 g/ha ([10]; preemergence, approx. 10 d, read-out: Pigweed plant response rating): 0%
pest or weed control at 500 g/ha ([10]; preemergence, visual injury rating about 10 d after treatment, 0 to 100 scale (0 no effect, 100 complete control), read-out: Pigweed plant response rating): 0%
pest or weed control at 125 g/ha ([11]; Preemergence, visual injury rating after approximately 10 d, read-out: Foxtail, Giant plant response rating (0 to 100 scale, 0 is no effect, 100 is complete control)): 0%
pest or weed control at 500 g/ha ([11]; preemergence, visual injury rating about 10 d after treatment, 0 to 100 scale (0 no effect, 100 complete control), read-out: Foxtail, Giant plant response rating): 0%
pest or weed control at 125 g/ha ([12]; Preemergence, visual injury rating after approximately 10 d, read-out: Barnyardgrass plant response rating (0 to 100 scale, 0 is no effect, 100 is complete control)): 0%
pest or weed control at 500 g/ha ([12]; preemergence, visual injury rating about 10 d after treatment, 0 to 100 scale (0 no effect, 100 complete control), read-out: Barnyardgrass plant response rating): 0%
